≈ marks a conversion by molar mass, not a printed value. Where a SMILES comes first, the peptide text is derived from it. Bridges are numbered along the chain shown (N, C = ends). Roman numbers before positions name the chains, in order. [ ]: non-standard residue; d: D form. Thr(ol) = C[C@@H](O)[C@H](N)CO; Tle = CC(C)(C)[C@H](N)C(=O)O; Hiv = CC(C)[C@H](O)C(=O)O; dDab = NCC[C@@H](N)C(=O)O; Dab = NCC[C@H](N)C(=O)O; Abu = CC[C@H](N)C(=O)O; Dap = NC[C@H](N)C(=O)O
What was measured:
Assay type in all cases: cell-based
[1] = tested on: Escherichia coli ATCC 25922; conditions: ATCC 25922
How it was run: (§1)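 Broth microdilution per CLSI; MH-II (cation-adjusted) + 0.002% P-80 final; ~10^6 CFU/mL inoculum; 2-fold peptide series; 35° C, 18-20 h; MIC = no visible growth, μg/mL.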

Escherichia coli 926415 = conditions: 926415
How it was run: as §1

[2] = tested on: Acinetobacter baumannii DSM 30008; conditions: DSM 30008
How it was run: as §1

[3] = tested on: Acinetobacter baumannii 872842; conditions: 872842
How it was run: as §1

[4] = tested on: Klebsiella pneumoniae 968733; conditions: 968733
How it was run: as §1

[5] = tested on: Enterobacter cloacae 848840; conditions: 848840
How it was run: as §1

[6] = tested on: Klebsiella pneumoniae SSI #3010; conditions: SSI #3010
How it was run: as §1

[7] = tested on: Pseudomonas aeruginosa ATCC 27853; conditions: ATCC 27853
How it was run: as §1

[8] = tested on: human red blood cells (hRBC); assay: Hemolysis; conditions: red cells of human, 1 h, 200
How it was run: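 Percent lysis of human red cells was derived from OD540 of the supernatant, referenced to 2% Triton X-100, after a 1 h, 37° C incubation of 20% (v/v) cells with 200 μg/mL peptide.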

Escherichia coli ATCC 25922 MIC [1] [µg/mL] | MIC (Escherichia coli 926415) [µg/mL] | Acinetobacter baumannii DSM 30008 MIC [2] [µg/mL] | MIC [3] [µg/mL] | MIC [4] [µg/mL] | MIC [5] [µg/mL] | Klebsiella pneumoniae SSI #3010 MIC [6] [µg/mL] | Pseudomonas aeruginosa ATCC 27853 MIC [7] [µg/mL] | MIC [1] [µg/mL] | MIC [2] [µg/mL] | MIC [6] [µg/mL] | MIC [7] [µg/mL] | Compound | Hemolysis at 200 μg/mL [8] [%]
0.01562 | 0.0625 (≈ 0.0254 µM) | 0.007813 | 0.03125 (≈ 0.0127 µM) | 0.0625 (≈ 0.0254 µM) | 0.03125 (≈ 0.0127 µM) | 0.03125 | 0.0625 |  |  |  |  | CC[C@@H]1NC(=O)[C@@H](CC(C)C)NC(=O)[C@H](CCN)NC(=O)[C@@H](NC(=O)[C@H](CN)NC(=O)[C@@H](NC(=O)[C@H](CCN)NC(=O)CC[C@@H]2NC(=O)[C@H](CCN)NC(=O)[C@H](Cc3ccc(O)cc3)NC(=O)[C@@H](NC(=O)[C@@H](NC(C)=O)C(C)C)CSSC[C@@H](C(=O)N[C@@H](C)C(=O)N[C@H](CO)C(N)=O)NC(=O)[C@H]([C@@H](C)CC)NC(=O)[C@H](CO)NC(=O)[C@H](Cc3c[nH]c4ccccc34)NC(=O)[C@H](CO)NC(=O)[C@@H](CCN)NC2=O)[C@@H](C)O)CCNC(=O)[C@H]([C@@H](C)O)NC(=O)[C@H](CCN)NC(=O)[C@H](CCN)NC1=O [Ex. 369] (I: Ac-VCY[Dab]E[dDab]SWSICA[dS]-NH2 / II: [Dab]T[Dap][Dab][Dab][dL][Abu][Dab][Dab]T; disulfide I:2-I:11; amide I:5-II:N; lactam II:4-II:C) | <1
 | 0.5 (≈ 0.215 µM) |  | 0.5 (≈ 0.215 µM) | 0.5 (≈ 0.215 µM) | 8 (≈ 3.44 µM) |  |  | 0.0625 (≈ 0.0268 µM) | 0.125 (≈ 0.0537 µM) | 0.25 (≈ 0.107 µM) | 0.5 (≈ 0.215 µM) | CC(C)C[C@@H]1NC(=O)[C@@H](CC(C)C)NC(=O)[C@H](CCN)NC(=O)[C@@H](NC(=O)[C@H](CN)NC(=O)[C@@H](NC(=O)[C@H](CCN)NC(=O)CC[C@H]2NC(=O)[C@@H](CCN)NC(=O)CNC(=O)[C@@H](NC(=O)[C@H](Cc3ccc(O)cc3)NC(=O)[C@@H](NC(=O)[C@@H](O)C(C)C)[C@@H](C)O)CSSC[C@@H](C(=O)N[C@H](C(=O)N[C@@H](C)C(=O)N[C@H](CO)[C@@H](C)O)C(C)(C)C)NC(=O)[C@H](Cc3c[nH]c4ccccc34)NC2=O)[C@@H](C)O)CCNC(=O)[C@H]([C@@H](C)O)NC(=O)[C@H](CCN)NC(=O)[C@H](CCN)NC1=O [Ex. 214] (I: H-[Hiv]TYCG[dDab][dE]WC[Tle]A[Thr(ol)] / II: [Dab]T[Dap][Dab][Dab][dL]L[Dab][Dab]T; disulfide I:4-I:9; amide I:7-II:N; lactam II:4-II:C) | <1
 | 0.125 (≈ 0.0476 µM) |  | 0.03125 (≈ 0.0119 µM) | 0.25 (≈ 0.0953 µM) | 0.125 (≈ 0.0476 µM) |  |  | 0.03125 (≈ 0.0119 µM) | 0.03125 (≈ 0.0119 µM) | 0.0625 (≈ 0.0238 µM) | 0.125 (≈ 0.0476 µM) | CC(=O)N[C@@H](CCN)C(=O)N[C@H](C(=O)N[C@H](C(=O)N[C@@H](Cc1ccc(O)cc1)C(=O)N[C@@H](CN)C(=O)N[C@@H](CCC(=O)N[C@@H](CCN)C(=O)N[C@H](C(=O)N[C@@H](CN)C(=O)N[C@H]1CCNC(=O)[C@H]([C@@H](C)O)NC(=O)[C@H](CCN)NC(=O)[C@H](CCN)NC(=O)[C@H](CC(C)C)NC(=O)[C@@H](CC(C)C)NC(=O)[C@H](CCN)NC1=O)[C@@H](C)O)C(=O)N[C@H](CCN)C(=O)N[C@@H](CO)C(=O)N[C@@H](Cc1c[nH]c2ccccc12)C(=O)N[C@@H](CO)C(=O)N[C@H](C(=O)N[C@@H](CO)C(=O)N[C@H](C(=O)N[C@@H](CCC(=O)O)C(N)=O)C(C)C)C(C)(C)C)[C@@H](C)O)C(C)C [Ex. 249] (I: Ac-[Dab]VTY[Dap]E[dDab]SWS[Tle]SVE-NH2 / II: [Dab]T[Dap][Dab][Dab][dL]L[Dab][Dab]T; amide I:6-II:N; lactam II:4-II:C) | 2
